The source of these data is patent US5573772A, “Methods for protecting tissues and organs from ischemic damage” (priority 1994, dated 1996).

The test system of the assay is isolated rabbit hearts. Briefly: Infarct size after 30 min coronary branch occlusion and 120 min reperfusion in isolated rabbit hearts, Example 1. On the set-up: species or system rabbit (New Zealand white). The settings on record: for Infarct size compared with control group: ADO 10 uM or APNEA 50 nM, p<0.01. Here is the method: These solutions were then diluted in Krebs buffer to the final concentration just before the experiments started. New Zealand white rabbits of either sex, between 1.4-2.4 kg, were anesthetized with intravenous sodium pentobarbital (30 mg/kg). The neck was opened and a tracheotomy was performed. The rabbits were ventilated with 100% oxygen via a positive pressure respirator (MD industries, Mobile, Ala.). Ventilation rate was 30-35 breaths per minute, and tidal volume was approximately 15 ml. A left thoracotomy was performed in the fourth intercostal space and pericardium was opened to expose the heart. A 2-0 silk suture with an RB taper needle was passed around a branch of the left coronary artery, and the end of the silk were threaded through a small vinyl tube to form a snare. The heads were quickly excised and mounted on a Langendorff apparatus and perfused at constant pressure with Krebs buffer containing (in mM) 118.5 NaCl, 4.7 KCl, 1.2 MgSO4, 1.2 K2 PO4, 24.3 NaHCO3, 2.5 CaCl2 and 10 glucose. […] The temperature of the perfusate was maintained at 37° C. The perfusion pressure was kept at 75 mm Hg. Pacing electrodes were placed on the right atrium and all hearts were paced at 200 beats/minute with pulses of 5 volts and 4 msec duration to keep the heart rate constant. A fluid-filled latex balloon connected to a transducer via PE240 tubing was inserted into the left ventricle. Balloon volume was adjusted to set the left ventricular diastolic pressure at 10 mm Hg at the beginning of the experiment. Total coronary artery flow was measured by timed collection of buffer from the chamber into a graduated cylinder. Regional ischemia was effected by pulling the snare tight and clamping the tube with a hemostat. Global ischemia was performed by clamping the inflow tubing of the Langendorff apparatus. Reperfusion was achieved by releasing the restriction. All hearts were allowed to equilibrate for 20 minutes before the experiments were started. Heart rate (HR), coronary flow (CF) and left ventricular developed pressure (LVDP) were recorded at the point just before and at the end of each treatment with the pacing momentarily turned off. […] The hearts were removed from the Langendorff apparatus, weighed and then frozen. The hearts were cut into 2 mm transverse slices. The slices were thawed and incubated in 1% triphenyl tetrazolium chloride (TTC) in pH 7.4 buffer for 20 minutes at 37° C. TTC reacts with NADH and dehydrogenase enzymes and stains all tissue still having them to a deep red color. […] After staining, the area of infarcted tissue (TTC negative tissue) and the risk zone (area lacking fluorescence under ultraviolet light) in each slice were traced. The area of infarct and risk zone were determined by planimetry of the tracing. The volume of infarcted myocardium and myocardium at risk was then calculated by multiplying the planimetered areas by the slice thickness. The animals were divided into 10 groups. The hearts in all groups were subjected to 30 minutes of coronary branch occlusion followed by 120 minutes of reperfusion. Control group (CON, n=10) only experienced the above-mentioned 30 minutes of regional ischemia while the preconditioned group (PC, n=12) received an additional 5 minutes of global ischemia plus 10 minutes of reperfusion prior to the 30 minute occlusion. In the adenosine group (ADO, n=6) and the APNEA group (APNEA, n=5), the hearts were exposed to 10 uM adenosine and 50 nM APNEA respectively, for 5 minutes as a substitute for ischemic preconditioning. The drug was allowed to washout for 10 minutes before the 30 minute ischemia was started. In groups receiving SPT, the blocker was included in the perfusate for 15 minutes at 100 uM starting 5 minutes before the exposure of ADO (ADO-SPT group, n=6) or APNEA (APNEA-SPT group, n=5) or 5 minutes before and after 5 minutes of preconditioning ischemia (PC-SPT group, n=5). […] All results are expressed as group mean±SEM. […]

For `Nc1ncnc2c1ncn2[C@@H]1O[C@H](CO)[C@@H](O)[C@H]1O` [ADO, Adenosine], the “Infarct size compared with control group” value was “significantly smaller than those in the control group”. The “Infarct size (area at risk infarcted)” value (ADO 10 uM, 5 minutes, control 29.4±2.9%, PC 10.8±2.8%) was determined as 11.4±2.1%.
With `Nc1ccc(CCNc2ncnc3c2ncn3[C@@H]2O[C@H](CO)[C@@H](O)[C@H]2O)cc1` [APNEA, N^6-(2-(4-aminophenyl)ethyl) adenosine], the “Infarct size compared with control group” value is given as “significantly smaller than those in the control group”. Also, the “Infarct size (area at risk infarcted)” value (APNEA 50 nM, 5 minutes, control 29.4±2.9%) amounted to 11.9±2.3%.
Consider `CCCn1c(=O)c2[nH]c(C3CCCC3)nc2n(CCC)c1=O` [DPCPX, 8-cyclopentyl-1,3-dipropylxanthine], for which the “Infarct size (area at risk infarcted)” value (DPCPX 200 nM + ADO 10 uM (ADO-DPCPX)) is 14.4±7.0%, the “Infarct size (area at risk infarcted)” value (DPCPX 200 nM + APNEA 50 nM (APNEA-DPCPX)) is given as 8.7±1.7% and the “Infarct size (area at risk infarcted)” value (DPCPX 200 nM + PC (PC-DPCPX)) was 15.6±7.8%.
Regarding `Cn1c(=O)c2[nH]c(-c3ccc(S(=O)(=O)O)cc3)nc2n(C)c1=O` [SPT, 8-(p-Sulfophenyl)-theophylline], the “Infarct size (area at risk infarcted)” value runs as follows: (SPT 100 uM + ADO 10 uM (ADO-SPT)) 29.8±3.4%; (SPT 100 uM + APNEA 50 nM (APNEA-SPT)) 32.8±3.3%; (SPT 100 uM + PC (PC-SPT)) 33.8±2.4%.
